Data published in a compilation of properties of binary mixtures (doi:10.1016/j.molliq.2012.11.030).

Assay: xn = mol fraction of the nth substance listed
Conditions: 298.15 K, 101 kPa

CC(=O)[O-].CC[NH3+] + O
Conditions	electrical conductivity [S/m]
x1 = 0.003	0.782
x1 = 0.0103	1.89
x2 = 0	0.222
x2 = 0.2027	0.452
x2 = 0.3481	0.745
x2 = 0.7999	2.48
x2 = 0.8502	2.75
x2 = 0.9436	3.1
x2 = 0.9502	3.11
x2 = 0.96	3.08
x2 = 0.9685	2.9
x2 = 0.9799	2.65
